Values of other authors as cited in PMC3079564 (Chemical biology & drug design, 2011).

Columns and labels:
[1] = test system: gp120 from the YU2 strain
[2] = test system: recombinant HIV-1 carrying HIV-1YU2 envelope glycoproteins on Cf2Th-CCR5 cells lacking CD4

SMILES: CC1(C)CC(NC(=O)C(=O)Nc2ccc(Cl)cc2)CC(C)(C)N1 [NBD-556]
- -TΔS of binding to gp120 ([1]; 25 °C): 71.5 kJ/mol
- ΔH of binding to gp120 ([1]; 25 °C): -103 kJ/mol
- measured heat capacity change on binding to gp120 ([1]; NBD-556): -1.0 kcal/(K × mol)
- enhancement of viral infectivity in CD4 negative cells [2]: three orders of magnitude
